Measurements taken from BindingDB's records for patent US10155765 (Merck Sharp & Dohme, 2018).

Biological target: T1, Interleukin-1 receptor-associated kinase 4 (Homo sapiens, UniProt Q9NWZ3)
T1 sequence (Q9NWZ3 whole entry): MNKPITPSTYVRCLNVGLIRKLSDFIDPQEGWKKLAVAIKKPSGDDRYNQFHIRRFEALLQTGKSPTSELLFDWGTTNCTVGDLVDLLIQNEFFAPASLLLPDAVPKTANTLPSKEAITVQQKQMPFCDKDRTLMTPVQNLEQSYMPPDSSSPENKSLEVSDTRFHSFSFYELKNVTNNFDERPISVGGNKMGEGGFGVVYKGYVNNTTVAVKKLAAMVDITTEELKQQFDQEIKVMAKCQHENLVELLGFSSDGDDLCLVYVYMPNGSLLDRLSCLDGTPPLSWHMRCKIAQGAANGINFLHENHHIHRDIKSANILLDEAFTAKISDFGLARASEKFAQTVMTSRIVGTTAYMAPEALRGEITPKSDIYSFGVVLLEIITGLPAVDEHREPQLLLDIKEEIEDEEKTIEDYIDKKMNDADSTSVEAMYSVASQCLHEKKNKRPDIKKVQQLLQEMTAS
Assay: IRAK4 Kinase Assay
Experimental: The kinase activity of IRAK4 is determined by its ability to catalyze the phosphorylation of a fluorescent polypeptide substrate. The extent of phosphorylation is measured using the IMAP technology (Molecular Devices) where the phosphorylated fluorescent substrate binds to the large M(III)-based nanoparticles which reduces the rotational speed of the substrate and thus increases its fluorescent polarization (FP).20 μL reaction mixture contains 10 mM TriHCl, pH 7.2, 0.5 nM GST tagged IRAK4 (SignalChem), 100 nM fluorescent peptide substrate (RP7030, Molecular Devices), 100 μM ATP, 1 mM DDT, 1 mM MgCl2, and 0.01% Tween 20. The reaction is initiated by the addition of ATP. After incubation for 30 minutes at 25° C., 60 μL of Progressive IMAP Reagent (Molecular Devices) is added to stop the reaction. Change in RP7030's FP is determined by a FP reader (Analyst HT, LJL BioSystems).

IC50	Compound
310 nM	NC(=O)c1c(NC(=O)c2cnn3ccc(N4CCNCC4)nc23)cnn1-c1ccncc1 [US10155765, Example 35]
370 nM	CSc1ncc2ccc(C(=O)Nc3cn(C)nc3C(N)=O)n2n1 [US10155765, Example 57]
